Data on seven compounds can be found in patent US20250136563A1, “THIADIAZOLONE DERIVATIVES USEFUL AS AMPK ACTIVATOR” (Betagenon AB, priority 2021, published 2025).

“Also recorded” adds a separate entry of the source. Counter-ions that a name gives are not always drawn. Like-named read-outs stand apart in the source and are kept apart here.

For data set [1] the following is noted: for % remaining after 15 min / % remaining after 30 min: buffer; for % remaining after 15 min: 0.25 h; for % remaining after 30 min: 0.5 h.
Description: (§1) The stability of Compound 17 was assessed in buffers with pH 1.20, 7.40 and 9.20. The pH 1.20 study was conducted using an HCl buffer. A phosphate buffer was used for the pH 7.40 medium, and an alkaline borate buffer was used for the pH 9.20 medium.
(§2) HCl buffer—Potassium chloride (1.491 g) was dissolved in 100 mL of Ultrapure water type-1 to get 0.2 M KCl solution. About 50 mL of 0.2 M KCl was taken in a beaker and the pH was adjusted to 1.20 using 0.2 M HCl solution. The final volume was made up to 200 mL using Ultrapure water type-1 and stored at room temperature (22±3° C.).
(§3) Phosphate buffer—Potassium phosphate monobasic (2.722 g) was dissolved in 100 mL of Ultrapure water type-1 to get 0.2 M solution. About 50 mL of 0.2 M solution was taken in a beaker and the pH was adjusted to 7.40 using 0.2 M NaOH solution. The final volume was made up to 200 mL using Ultrapure water type-1 and stored at room temperature (22±3° C.).
(§4) Alkaline borate buffer—Boric acid (1.237 g) and potassium chloride (1.491 g) were dissolved in 100 mL of Ultrapure water type-1 to get 0.2 M solution. About 50 mL of 0.2 M solution was taken in beaker and the pH was adjusted to 9.20 using 0.2 M NaOH solution. The final volume was made up to 200 mL using Ultrapure water type-1 and stored at room temperature (22±3° C.).
(§5) 5 μM solutions of Compound 17 in each buffer were prepared with 5 mM DMSO stock solutions. The solutions were incubated at 22 t 3° C. for 120 minutes, with shaking at 400 rpm using a thermomixer.
(§6) After 0, 15, 30, 60 and 120 minute intervals, aliquots of sufficient volume of the compound solutions were taken, diluted and analysed to determine the stability of Compound 17 in each solution, as well as the amount of Compound 1 present. The amount of Compound 1 present was compared to the amount expected assuming full conversion of Compound 17 to Compound 1.
(§7) The stability of Compounds 3, 6, 9, 20 and 23 was tested using the same methods as described above for Compound 17.
The nature of data set [2]: Stability in HCl buffer (pH 1.20), 37° C. The settings on record: HCl buffer pH 1.20, 37° C. Type of data set: physicochemical. How it is done:
5 μM solutions of Compound 1 and Compound 4 (i.e. the citric acid salt of Compound 3) in HCl buffer (pH: 1.20) were prepared with 5 mM DMSO stock solutions.

For data set [3] the following is noted: mice; Das et al. 2019; cited from earlier work.
Data set [4] can be described thus: Stability in buffers pH 1.20, 7.40 and 9.20 (Examples 26 and 27).
Description: as §1, §2, §3, §4, §5, §6, §7
The nature of data set [5]: Single dose oral pharmacokinetic study of Compounds 5, 6, 7, 9, 10, 13, 14, 16 and 17 in Sprague Dawley rats. In kind it is in vivo. The method, then: 10.0 mL of 2% w/v methyl cellulose solution in phosphate buffer (pH 7.5) was added to a 100 mL conical flask along with 1 g of 2 mm glass beads. The solution was vigorously stirred on a magnetic stirrer. 100 mg of Compound 1 was slowly added to the solution, and the solution was vigorously stirred for approximately 1 h. The pH of the formulation was measured to be 7.49. Each formulation was freshly prepared prior to administration to the animals. The final concentration of Compound 1 in of the formulation was 10 mg/mL. The formulation was administered at 5 mL/kg body weight. […]
Adult healthy male Sprague Dawley rats aged 8 to 10 weeks were used for experimentation after a minimum three days of acclimatization. Fed state animals were administered the formulation of Compound 1 or Compound 3 orally via gavage at a dose of 50 mg/kg or 65 mg/kg body weight, respectively.
Under mild isoflurane anesthesia, blood specimens were collected by retro-orbital puncture method using capillary tubes into pre-labeled tubes containing anticoagulant (K2EDTA: 2 mg/mL blood) during the next 72 hours post-dosing, as detailed in Table 6. For blood sampling at multiple time points, the right and left eyes were used alternatively. Collected blood specimens were centrifuged at 6000 rpm, 4° C. for 10 minutes and the plasma samples were separated and stored at −80° C. until analysis.
Formulations were prepared in accordance with the method described in Example 19.
Doses equivalent to 50 mg/kg of Compound 1 were selected for comparison of equimolar doses.
The administration and blood sampling were performed as described in Example 19.
The results for the single dose oral pharmacokinetic study in rats are tabulated in Tables 7 and below and are shown graphically in FIG. 3. In Table 7, the Cmax, Tmax, AUClast, AUCinf, AUCextrap and T1/2 values are for 4-chloro-N-[2-[(4-chlorophenyl)methyl]-3-oxo-1,2,4-thiadiazol-5-yl]benzamide (Compound 1), which was detected following the administration of the compounds.

[6] abbreviates: analyte Compound 1 in plasma, oral, dose equivalent to 50 mg/kg of Compound 1.

With “[azaniumyl({[(4S)-4-azaniumyl-4-[(2-{[5-(4-chlorobenzamido)-2-[(4-chlorophenyl)methyl]-3-oxo-1,2,4-thiadiazolidin-4-yl]methoxy}-2-oxoethyl)carbamoyl]butyl]amino})methylidene]azanium Trichloride [Compound 23]”, in data set [1] (pH 1.2), the “% remaining after 15 min” value is recorded as 78%, the “% remaining after 30 min” value is listed as 77% and the “stability at pH 1.2 (in words)” value is “relatively stable”. In data set [1] (pH 7.4), the “% remaining after 15 min” value came out at 0%; the “% remaining after 30 min” value was found to be 0%; the “stability at pH 7.40 and above (in words)” value is “degrade rapidly”.
For the compound `O=C(Nc1nc(=O)n(Cc2ccc(Cl)cc2)s1)c1ccc(Cl)cc1` [Compound 1, 4-chloro-N-[2-[(4-chlorophenyl)methyl]-3-oxo-1,2,4-thiadiazol-5-yl]benzamide, reference compound], the “% remaining compared to 0.0 min” value in data set [2] (0.0 min) was found to be 100.00%; in data set [2] (15 min), 71.32%; in data set [2] (30 min) it was 63.05%; in data set [2] (60 min), 58.77%; in data set [2] (120 min), 43.04%. Also, the “treating pain (in words)” value in data set [3] was “effective at treating pain”.
On to `NC(CC(=O)O)C(=O)OCn1c(=O)n(Cc2ccc(Cl)cc2)s/c1=N/C(=O)c1ccc(Cl)cc1` (centres unmarked) [Compound 17, Trifluoroacetate], for which the “% remaining after 15 min” value in data set [4] (buffer pH 1.2) is 76%; in data set [4] (buffer pH 7.4), 0%. Also, the “% remaining after 30 min” value was 82% in data set [4] (buffer pH 1.2) and 0% in data set [4] (buffer pH 7.4). The “Percentage of Compound 17 remaining compared to 0 minutes” value (“Percentage of Compound 17 remaining” below) in data set [4] (pH 1.20, 0.0 min) was found to be 100.00; in data set [4] (pH 1.20, 15.0 min) it was 76.19; in data set [4] (pH 1.20, 30.0 min), 82.37; in data set [4] (pH 1.20, 60.0 min), 73.33; in data set [4] (pH 1.20, 120.0 min), 79.04; in data set [4] (pH 7.40, 0.0 min) it was 100.00. Also, the “Percentage of Compound 17 remaining” value in data set [4] (pH 7.40, 15.0 min) was 0.13; in data set [4] (pH 7.40, 30.0 min), 0.39; in data set [4] (pH 7.40, 60.0 min), 0.47; in data set [4] (pH 7.40, 120.0 min), 2.33; in data set [4] (pH 9.20, 0.0 min) it was 100.00; in data set [4] (pH 9.20, 15.0 min) it was 0.00. For the same compound, the “Percentage of Compound 17 remaining” value was found to be 0.00 in data set [4] (pH 9.20, 30.0 min); 0.00 in data set [4] (pH 9.20, 60.0 min); 0.00 in data set [4] (pH 9.20, 120.0 min). In addition, in data set [4] (pH 1.2, Trifluoroacetate), the “stability at pH 1.2 (in words)” value is reported as “greatest stability; also recorded: relatively stable”. Further, the “stability at pH 7.40 and above (in words)” value in data set [4] (pH 7.40 / higher pH, Trifluoroacetate) is “degrade rapidly; also recorded: very low”.
With `CN(C)C(=N)N=C(N)N` [metformin], the “treating pain (in words)” value in data set [3] is recorded as “effective at treating pain”.
On to `NCC(=O)OCn1c(=O)n(Cc2ccc(Cl)cc2)s/c1=N\C(=O)c1ccc(Cl)cc1` [Compound 9, Trifluoroacetate], for which, in data set [4] (buffer pH 1.2), the “% remaining after 15 min” value came to 100% and the “% remaining after 30 min” value is on record as 100%. In data set [4] (buffer pH 7.4), the “% remaining after 15 min” value was found to be 46% and the “% remaining after 30 min” value is 13%.
`NCCCCC(N)C(=O)OCN1C(=O)N(Cc2ccc(Cl)cc2)SC1NC(=O)c1ccc(Cl)cc1.O=C(O)C(F)(F)F.O=C(O)C(F)(F)F` (centres unmarked) [Compound 6, 6-{[5-(4-chlorobenzamido)-2-[(4-chlorophenyl)methyl]-3-oxo-1,2,4-thiadiazolidin-4-yl]methoxy}-6-oxohexane-1,5-bis(aminium) di-trifluoroacetate]: the entries for the “% remaining after 15 min” value in data set [4] (buffer pH 1.2) and in data set [4] (buffer pH 7.4) were 83% and 33%, respectively. In addition, the “% remaining after 30 min” value was 86% in data set [4] (buffer pH 1.2) and 33% in data set [4] (buffer pH 7.4).
Turning to “2-({[5-(4-chlorobenzamido)-2-[(4-chlorophenyl)methyl]-3-oxo-1,2,4-thiadiazolidin-4-yl]methoxy}carbonyl)-1-methylpyrrolidine [Compound 10]”, the “Plasma Concentration of Compound 1” value in data set [5] (0.00 h post-dose, oral, equivalent to 50 mg/kg of Compound 1) turned out to be 0.00 µg/mL. Moreover, the “Plasma Concentration of Compound 1” value in data set [5] (1.00 h post-dose) was 76.70 µg/mL. For the same compound, in data set [5] (4.00 h post-dose), the “Plasma Concentration of Compound 1” value is 106.37 µg/mL. The “Plasma Concentration of Compound 1” value in data set [5] (8.00 h post-dose) was determined as 100.53 µg/mL. Besides, the “Plasma Concentration of Compound 1” value in data set [5] (24.00 h post-dose) worked out at 26.77 µg/mL. In data set [5] (setting [6]), the AUCextrap is reported as 17.81%, the AUCinf was 2120.39 µg·h/mL, the AUClast worked out at 1745.15 µg·h/mL and the peak concentration (Cmax) was determined as 114.03 µg/mL. Further, in data set [5] (setting [6]), the T1/2 is recorded as 9.63 h and the Tmax amounted to 5.33 h.

The Cmax is the peak of the concentration-time curve. The term Tmax denotes the time at which the peak concentration occurs.
